{"source": "patent US7250153B2", "about": "“Contrast media formulations having improved biological tolerance” (Biophysica Research, Inc., priority 2002, dated 2007)", "key": {"mice [1]": {"test_system": "mice", "assay": "Intravenous LD50 (systemic tolerance) in mice", "format": "in vivo", "method": "(§1) To examine the effects of the TRIS/citrate buffer system of this invention on the biological tolerance, using standard methods, we assessed intravenous murine and rat LD50 of iosimenol formulated either in TRIS/HCl or in the novel TRIS/citric acid buffers, and compared the results with those published for the clinically employed nonionic dimer iodixanol (formulated in TRIS/HCl buffer; Heglund IF et al., Acta Radiol. Suppl. 1995:399:69-82). Murine and rat LD50 were obtained by 1 ml/min injection of 340 mg I/ml; data at 7 days and based on the 50% survival of the animals was expressed as g I/kg bw (Table 3)."}, "[2]": {"assay": "Separate study: stability of iosimenol after autoclaving in TRIS/HCl and TRIS/citric acid (pH, iodide release)", "format": "physicochemical", "settings": "121° C. for 20 min; for pH after autoclaving / ΔI−: pre-autoclaving pH 7.00, Ca/Na EDTA 0.1 mg/ml, 340-355 mg I/ml", "method": "(§2) A 5 micron C18 column 25 cm×4.6 mm ID was eluted with 30% acetonitrile/70% 0.05 M KH2PO4 containing 7 ml/L of 40% tetrabutyl ammonium hydroxide. 20 μl of a 10 μg I^−/ml was the standard. 20 μl of a test sample of iosimenol was injected and UV absorbance measured at 230 nm, 0.2 AU. Under these conditions, the iodide standard eluted after 5.6 minutes and gave an area of “X” counts.\n(§3) Iodide was alternately determined by extraction and spectrophotometry according to USP24/NF19, p 911 (1995). In general, the solution containing iodide is oxidized in the presence of acid, with sodium nitrite and then extracted into toluene which is then read at a wavelength of 500 nm. Comparison of standard samples with experimental samples yields the amount of iodide present in the sample."}, "[3]": {"assay": "Stability of iosimenol to autoclave sterilization (20 min at 121° C.), free iodide measured", "format": "physicochemical", "settings": "for I− after / I− before: single samples", "method": "Samples of Iosimenol were formulated in 20 mM TRIS+5 mM citric acid, TRIS/HCl and 10 mM TRIS+3.3 mM citrate. Samples were then autoclaved for 20 minutes at 121° C. and the amounts of free iodine measured.\nas §2, §3"}, "rats [4]": {"test_system": "rats", "assay": "Intravenous LD50 (systemic tolerance) in rats", "format": "in vivo", "method": "as §1"}, "rats [5]": {"test_system": "rats", "settings": "Control, formulated in TRIS/HCl; intravenous; published (Heglund et al. 1995); cited from earlier work"}, "mice [6]": {"test_system": "mice", "settings": "Control, formulated in TRIS/HCl; intravenous; published (Heglund et al. 1995); cited from earlier work"}, "[7]": {"settings": "Buffer 10 mM TRIS + 3 mM citric acid"}}, "note": "“And” between values parts separate entries of the source, which are not always exact repeats. Identical values can stand only once. Like-named read-outs stand apart in the source and are kept apart here.", "data": [{"smiles": "NC(=O)c1c(I)c(C(=O)NCC(O)CO)c(I)c(N(CC(O)CO)C(=O)CC(=O)N(CC(O)CO)c2c(I)c(C(N)=O)c(I)c(C(=O)NCC(O)CO)c2I)c1I", "note": "(stereo not shown) [Iosimenol, N,N′-Bis[3-carbamoyl-5-(2,3-dihydroxypropyl-carbamoyl)-2,4,6-triiodophenyl]-N,N′-bis(2,3-dihydroxypropyl)-malonamide]", "values": [{"measurement": "LD50 mice", "setting": "mice [1]; mouse, in vivo, iv", "result": 22.0, "unit": "g I/kg bw"}, {"measurement": "LD50 in 20 mM TRIS with 5 mM citrate compared with 20 mM TRIS/HCl (in words)", "setting": "mice [1]; murine, intravenous", "result": "statistically significantly higher LD50"}, {"measurement": "pH after autoclaving", "setting": "[2]; [7]", "result": 6.90}, {"measurement": "ΔI−", "setting": "[2]; [7]", "result": "+24.2 μg/ml"}, {"measurement": "pH after autoclaving", "setting": "[2]; Buffer 10 mM TRIS/HCl", "result": 6.49}, {"measurement": "ΔI−", "setting": "[2]; Buffer 10 mM TRIS/HCl", "result": "+8.7 μg/ml"}, {"measurement": "pH after autoclaving", "setting": "[2]; Buffer 20 mM TRIS/HCl", "result": 7.00}, {"measurement": "ΔI−", "setting": "[2]; Buffer 20 mM TRIS/HCl", "result": "+7 μg/ml"}, {"measurement": "Stability after autoclaving (in words)", "setting": "[2]; TRIS/citric acid in a non-equivalent ratio compared with TRIS/HCl buffer", "result": "lower stability"}, {"measurement": "Stability on autoclaving (in words)", "setting": "[3]; 20 mM TRIS and 5 mM citric acid, pH about 6.5 to 7.5, compared with TRIS/HCl or TRIS/citrate in molar equivalent ratio", "result": "always somewhat less or equally stable"}, {"measurement": "I− after, Avg.", "setting": "[3]; Buffer 10 mM TRIS + 3.3 mM citrate, after 20 min at 121° C., average", "result": 21.84, "unit": "µg/mL"}, {"measurement": "I− after", "setting": "[3]; Buffer 10 mM TRIS + 3.3 mM citrate, after 20 min at 121° C.", "result": "22.34 µg/mL and 21.51 µg/mL and 21.66 µg/mL"}, {"measurement": "ΔI−", "setting": "[3]; Buffer 10 mM TRIS + 3.3 mM citrate, after minus before 20 min at 121° C.", "result": "+17.84 μg/ml"}, {"measurement": "I− before, Avg.", "setting": "[3]; Buffer 10 mM TRIS + 3.3 mM citrate, before autoclaving, average", "result": 4.00, "unit": "µg/mL"}, {"measurement": "I− before", "setting": "[3]; Buffer 10 mM TRIS + 3.3 mM citrate, before autoclaving", "result": "3.99 µg/mL and 4.17 µg/mL and 3.83 µg/mL"}, {"measurement": "I− after, Avg.", "setting": "[3]; Buffer 20 mM TRIS + 5 mM citric acid, after 20 min at 121° C., average", "result": 16.90, "unit": "µg/mL"}, {"measurement": "I− after", "setting": "[3]; Buffer 20 mM TRIS + 5 mM citric acid, after 20 min at 121° C.", "result": "15.80 µg/mL and 15.96 µg/mL and 16.11 µg/mL and 16.53 µg/mL and 18.87 µg/mL and 18.13 µg/mL"}, {"measurement": "ΔI−", "setting": "[3]; Buffer 20 mM TRIS + 5 mM citric acid, after minus before 20 min at 121° C.", "result": "+12.90 μg/ml"}, {"measurement": "I− before, Avg.", "setting": "[3]; Buffer 20 mM TRIS + 5 mM citric acid, before autoclaving, average", "result": 4.00, "unit": "µg/mL"}, {"measurement": "I− before", "setting": "[3]; Buffer 20 mM TRIS + 5 mM citric acid, before autoclaving", "result": "4.08 µg/mL and 3.94 µg/mL and 3.42 µg/mL and 3.59 µg/mL and 4.44 µg/mL and 4.52 µg/mL"}, {"measurement": "I− after, average (row not labelled)", "setting": "[3]; Buffer 20 mM TRIS/HCl, after 20 min at 121° C., average", "result": 14.22, "unit": "µg/mL"}, {"measurement": "I− after", "setting": "[3]; Buffer 20 mM TRIS/HCl, after 20 min at 121° C.", "result": "14.07 µg/mL and 14.19 µg/mL and 14.39 µg/mL"}, {"measurement": "ΔI− (row not labelled)", "setting": "[3]; Buffer 20 mM TRIS/HCl, after minus before 20 min at 121° C.", "result": "+9.89 μg/ml"}, {"measurement": "I− before, average (row not labelled)", "setting": "[3]; Buffer 20 mM TRIS/HCl, before autoclaving, average", "result": 4.33, "unit": "µg/mL"}, {"measurement": "I− before", "setting": "[3]; Buffer 20 mM TRIS/HCl, before autoclaving", "result": "4.29 µg/mL and 4.44 µg/mL and 4.27 µg/mL"}, {"measurement": "Stability under autoclaving (in words)", "setting": "[3]; carboxylic acid neutralized by an amine, compared with TRIS/carboxylic acid where TRIS prevailed or TRIS/HCl", "result": "less stable"}, {"measurement": "LD50 rats", "setting": "rats [4]; 20 mM TRIS + 5 mM citric acid, intravenous, 1 ml/min injection of 340 mg I/ml, data at 7 days", "result": 23.5, "unit": "g I/kg bw"}, {"measurement": "LD50 rats", "setting": "rats [4]; rat, in vivo, iv", "result": 20.0, "unit": "g I/kg bw"}, {"measurement": "LD50 in 20 mM TRIS with 5 mM citrate compared with 20 mM TRIS/HCl (in words)", "setting": "rats [4]; rat, intravenous", "result": "statistically significantly higher LD50"}]}, {"smiles": "CC(=O)N(CC(O)CN(C(C)=O)c1c(I)c(C(=O)NCC(O)CO)c(I)c(C(=O)NCC(O)CO)c1I)c1c(I)c(C(=O)NCC(O)CO)c(I)c(C(=O)NCC(O)CO)c1I", "note": "(stereo not shown) [Iodixanol]", "values": [{"measurement": "LD50 rats", "setting": "rats [5]", "result": 21.0, "unit": "g I/kg bw"}, {"measurement": "LD50 mice", "setting": "mice [6]", "result": 21.0, "unit": "g I/kg bw"}]}]}
